Experimental data published in US11118227B2, “Methods of identifying agents having neuroprotective or anti-oxidant activity for regulating mitochondrial function” (THE ROYAL VETERINARY COLLEGE, priority 2015, dated 2021).
“Also recorded” adds a separate entry of the source.

Tests used:
TSPO [1] = assay: Immunofluorescence and immunoblot of TSPO in SHY-5Y cells treated with PD toxins; format: cell-based
Source text: a. Representative immunofluorescence of TSPO in SHY-5Y Cells. Panels b and c: Immunoblot analysis of TSPO expression pattern and ATPB5 in SHY-5Y Cells treated with MPP^+ and 6-OHD.

PARK2 [2] = assay: Live imaging of YFP-PARK2 translocation in HeLa cells co-transfected with mt-RFP and YFP-PARK2; format: cell-based; conditions: for time of FCCP treatment to almost complete co-localisation of PARK2 in mitochondria: YFP-PARK2; for time of FCCP treatment at which PARK2 translocation was initiated: YFP-PARK2, pre- or co-treated
PARK2 [3] = assay: Western blot of PARK2 in mitochondrial fractions of MEF cells (basal conditions); format: cell-based, mouse; conditions: 24 h; for levels of PARK2 in mitochondrial fractions: basal, vs vehicle control, FIG. 4A-B
Source text: We therefore examined the ability of PARK2 to translocate to mitochondria either under basal conditions or after Carbonyl cyanide-4-(trifluoromethoxy)phenylhydrazone (FCCP an ionophore) treatment.

P62 [4] = conditions: East et al 2014, cited from earlier work
MEF cells [5] = assay: Western blot of mitochondrial protein ubiquitination in mitochondrial fractions of MEF cells; format: cell-based, mouse; conditions: 24 h, FIG. 3B
Source text: (B) Western blot of mitochondrial fractions, highlighting mitochondrial ubiquitination in control or sulforaphane and/or PMI-treated MEF cells. B-subunit is shown as a loading control; n=2.
(§1) The levels and localisation of p62 in MEF cells were then examined by immunoblotting (FIG. 3A).

TSPO mRNA = assay: RT-PCR of TSPO mRNA levels in MEF cells; format: cell-based, mouse; conditions: 24 h, PMI (10 μM) or sulforaphane (1 μM), vs control
Experimental: (D) RT-PCR analysis for estimation of TSPO mRNA levels in MEFs following treatment with DMSO, PMI (10 μM) and/or sulforaphane (1 μM). Values are presented as arbitrary units normalized to 18s RNA levels for each sample, n≥3.
(§2) TSPO has been recently described as a modulator of mitophagy (Gatliff et al., 2014). We were therefore interested to examine if PMI and sulforaphane alter its accumulation on Mitochondria as well as its transcription levels FIG. 6E.

MEF cells [6] = assay: Confocal imaging of colocalisation of mitochondria and LC-3 in MEF cells; format: cell-based, mouse; conditions: 24 hr; for mitochondrial LC3 colocalisation (mitophagy): 1 μM sulforaphane or 10 μM PMI, FIG. 2D
Experimental: (§3) (D) Representative images of LC3 localization in MEF cells treated with DMSO vehicle control, or 1 μM sulforaphane and/or 10 μM PMI for 24 hr. Scale bar represents 10 μm. A magnification of the merge images is shown in areas demarcated by the white box.
To investigate the effects of sulforaphane in mitophagy, we examined the colocalisation of mitochondria and LC-3 in MEF cells using high-resolution confocal imaging (FIG. 2D).

MEF cells [7] = assay: Western blot of mitochondrial protein levels (MTCO-1, β-subunit) in MEF cells; format: cell-based, mouse; conditions: 24 h; for mitochondrial network / key mitochondrial protein levels by western blot: vs untreated cells; for PMI (Nrf2)-induced reduction of mitochondrial protein levels, on co-administration of sulforaphane: 10 μM PMI & 1 μM sulforaphane
Experimental: [β-actin is shown as a loading control.
B-actin is shown as a loading control.
(§4) B-actin is shown as a loading control. […].
(§5) (A) Western blot to compare β-subunit, MTCO-1 and TSPO levels in MEFs treated with either DMSO vehicle control, or sulforaphane (1 μM), or PMI (10 μM) either with or without co-administration of UO126 (10 μM) for 24 h. B-actin is shown as a loading control.

[8] = biological target: T1, human Keap1 Kelch protein (Homo sapiens, UniProt Q14145); assay: Biochemical experiments on the Keap1-Nrf2 protein-protein interaction with human Keap1 Kelch protein
T1 construct: human Keap1 Kelch protein
Experimental: To confirm the mode of action of PMI, a series of biochemical experiments were conducted with human Keap1 Kelch protein.

TSPO [9] = assay: Immunoblotting of TSPO levels in MEF cells; format: cell-based, mouse; conditions: 24 h, 1 μM sulforaphane or 10 μM PMI, vs control
Experimental: as §5
(B) Graph show MTCO-1:β-actin (B), β-subunit:β-actin (C), TSPO:β-actin ratio band density analysis, n=3.
as §2

TSPO [10] = assay: TSPO expression in PARK2 null cells (HeLa); format: cell-based
PARK2 [11] = assay: Immunocytochemistry of FCCP-induced PARK2 translocation in MEF cells; format: cell-based, mouse; conditions: 24 hr treatment then FCCP (20 μM) 4 hr, vs vehicle control, FIG. 4E
Experimental: as §3, with “(E)” for “(D)”, “PARK2” for “LC3”, “control” for “control,”, “24 hr, before and after treatment with FCCP (20 μM) for 4” for “24”

HeLa cells = assay: Western blot of mitochondrial proteins (mitophagy) in HeLa cells; format: cell-based; conditions: HeLa cells (PARK2 null), after 7 h and 24 h
Source text: as §4

p62 [12] = conditions: MEF cells, 24 h, 1 μM sulforaphane
Experimental: (A) Representative images of P62 localization in MEF cells treated with DMSO vehicle control, or 1 μM sulforaphane and/or 10 μM PMI for 24 hr. Scale bar represents 10 μm. A magnification of the merge images is shown in areas demarcated by the white box. […].
as §1

MEF cells [13] = conditions: 24 h, 1 μM sulforaphane or 10 μM PMI, previously reported work (East et al., 2014), FIG. 1C; cited from earlier work

T1 sequence (Q14145 321-609 limits assumed): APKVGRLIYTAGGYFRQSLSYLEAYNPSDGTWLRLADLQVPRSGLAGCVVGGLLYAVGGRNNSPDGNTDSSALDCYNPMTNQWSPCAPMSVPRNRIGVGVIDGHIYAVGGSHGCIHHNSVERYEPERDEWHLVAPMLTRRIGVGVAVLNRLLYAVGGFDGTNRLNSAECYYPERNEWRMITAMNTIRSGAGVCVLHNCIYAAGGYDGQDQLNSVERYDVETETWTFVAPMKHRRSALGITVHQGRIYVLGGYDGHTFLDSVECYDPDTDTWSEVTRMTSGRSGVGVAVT

Structure (SMILES)	TSPO expression (TSPO [1])	time of FCCP treatment to almost complete co-localisation of PARK2 in mitochondria (PARK2 [2])	time of FCCP treatment at which PARK2 translocation was initiated (PARK2 [2]) [min]	levels of PARK2 in mitochondrial fractions (PARK2 [3])	levels of TSPO mRNA (RT-PCR) (TSPO mRNA)	mitochondrial LC3 colocalisation (mitophagy) (MEF cells [6])	mitochondrial network / key mitochondrial protein levels by western blot (MEF cells [7])	levels of TSPO by immunoblotting (TSPO [9])	expression of TSPO (TSPO [10])	FCCP-induced PARK2 translocation (PARK2 [11])	induction of mitophagy (mitochondrial protein levels) (HeLa cells)	other results
C[n+]1ccc(-c2ccccc2)cc1 [MPP^+]	upregulate TSPO	–	–	–	–	–	–	–	–	–	–	–
NCCc1cc(O)c(O)cc1O [6-HOD]	upregulate TSPO	–	–	–	–	–	–	–	–	–	–	–
O=[N+]([O-])c1cccc(-c2cn(-c3cccc(I)c3)nn2)c1 [PMI]	–	approximately 60 mins	30	no statistically significant differences	reduced compared to control	significantly increased compared to untreated cells	reduced mitochondrial network	reduction in the levels of TSPO; also recorded: decreases TSPO levels in MEFs	but not in the cells in which PARK2 is not expressioned such as HeLa cells	no statistically significant differences	induction of mitophagy was observed	sulforaphane-reduced PARK2 activity, on addition of PMI (PARK2 [3]; sulforaphane plus PMI): did not alter the reduced activity of PARK2; P62 expression (P62 [4]): upregulates P62 via stabilization of Nrf2; mitophagy (P62 [4]): promotes mitophagy; toxic effects on cells (P62 [4]; at the concentrations used in the assays): does not mediate any apparent toxic effects on cells; ubiquitination in mitochondrial fractions (MEF cells [5]; vs vehicle control): increased ubiquitination; degradation of the Keap1 Kelch protein [8]: without causing a degradation of the Keap1 Kelch protein; disruption of the protein-protein interaction between Keap1 and Nrf2 [8]: able to disrupt the protein-protein interaction between Keap1 and Nrf2 in a dose-dependent manner
C[S+]([O-])CCCCN=C=S (stereo not shown) [sulforaphane]	–	approximately 60 mins	30	reduced compared to the vehicle control	statistically significant increase	no induction of mitophagy was observed	no significant differences	no significant differences were observed	does not affect the expression of TSPO	no statistically significant differences	induction of mitophagy was observed	PMI-induced mitochondrial ubiquitination, on co-administration of sulforaphane (MEF cells [5]; PMI plus sulforaphane): abolished the effect attributed to PMI; mitochondrial LC3 colocalisation attributed to PMI, on addition of sulforaphane (MEF cells [6]; 10 μM PMI plus 1 μM sulforaphane): abolished; PMI (Nrf2)-induced reduction of mitochondrial protein levels, on co-administration of sulforaphane (MEF cells [7]): significant normalization of the mitochondrial protein levels; PMI (Nrf2)-induced reduction of mitochondrial protein levels, on co-administration of sulforaphane (MEF cells [7]; listed as Sulforaphane): inhibits the Nrf2-induced reduction of mitochondrial protein levels; levels of p62 in the cytosol (p62 [12]): increased levels of p62 in the cytosol compared to control; translocation of p62 to mitochondria (p62 [12]): impaired and significantly reduced compared to basal conditions; levels of TSPO by immunoblotting (TSPO [9]; listed as Sulforaphane): does not affect the expression of TSPO; mitochondrial proteins (MTCO-1) by Western blot (MEF cells [13]): an increase in mitochondrial proteins
